From patent US6720346B2, “Thiazole benzamide derivatives and pharmaceutical compositions for inhibiting cell proliferation” (Agouron Pharmaceuticals, Inc., priority 2001, dated 2004)

How the values were obtained:
human CDK4/cyclin D3 = target: T1, human CDK4/cyclin D3 (Homo sapiens, UniProt P11802); test: Inhibition of CDK4/cyclin D retinoblastoma kinase activity (Ki; % inhibition); format: biochemical; conditions: 0.03 μM compound
T1 construct: made in house; host or cells: insect cells co-infected with baculovirus vectors
T1 sequence (P11802 whole entry): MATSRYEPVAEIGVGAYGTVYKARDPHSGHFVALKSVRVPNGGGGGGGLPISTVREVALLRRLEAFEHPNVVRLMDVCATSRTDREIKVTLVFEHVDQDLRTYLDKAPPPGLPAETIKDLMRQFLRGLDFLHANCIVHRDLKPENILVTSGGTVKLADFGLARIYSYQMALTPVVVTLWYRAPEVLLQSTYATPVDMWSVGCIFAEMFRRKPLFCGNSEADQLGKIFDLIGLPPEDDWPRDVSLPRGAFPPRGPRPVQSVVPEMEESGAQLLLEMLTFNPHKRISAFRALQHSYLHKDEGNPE
T1 sequence (P30281 1-264 partner limits assumed): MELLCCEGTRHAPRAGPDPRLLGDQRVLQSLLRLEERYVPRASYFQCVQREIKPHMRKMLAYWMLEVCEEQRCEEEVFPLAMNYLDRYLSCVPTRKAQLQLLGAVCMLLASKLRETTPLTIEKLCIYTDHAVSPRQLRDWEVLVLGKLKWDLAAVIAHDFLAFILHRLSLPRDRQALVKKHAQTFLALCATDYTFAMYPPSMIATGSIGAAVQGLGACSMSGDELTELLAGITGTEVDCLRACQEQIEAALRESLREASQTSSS
Outline: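 Radiometric filter-binding read-out: Rb residues 386-928 phosphorylated by 5 nM CDK4/cyclin D3(1-264) from baculovirus-infected insect cells, 25 μM ATP, HEPES pH 7.4, 30 °C. Run 20 min, or 60 min for tight-binding inhibitors. Screening at 30 nM theoretical compound; apparent Ki by competitive-inhibition fitting.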

CDK2/cyclin A = target: T2, CDK2/cyclin A (Homo sapiens, UniProt P24941); test: Inhibition of CDK2/cyclin A retinoblastoma kinase activity (Ki; % inhibition); format: biochemical; conditions: 0.03 μM compound
T2 construct: made in house; host or cells: CDK2: insect cells (baculovirus); cyclin A: E. coli
Outline: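 Apparent Ki values came from fitting concentration-dependent activity data to competitive (or competitive tight-binding) models, and % inhibition from single 30 nM screens of library compounds. Activity was measured as ³²P/³³P incorporation from 25 μM ATP into an Rb substrate by 10 or 19 nM CDK2/delta cyclin A at 30 °C over 60–75 min, pH 7.4.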

HCT-116 cell line = test: Inhibition of cell growth, MTT tetrazolium salt assay; format: cell-based; conditions: HCT-116 cells; for HCT-116 % Inhibition at 0.1 μM: 0.1 μM compound; for HCT-116 % Inhibition at 0.25 μM: 0.25 μM compound
Outline: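 HCT-116 cells in McCoy's 5A were dosed 4 h after plating with compounds in 0.5% DMSO and grown 3–5 days at 37 °C. Then 0.2 mg/mL MTT was added for 4 h and formazan absorbance read at 540 nm. IC50/IC90 came from semi-log plots against DMSO-only controls.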

| Compound | CDK4 % Inhibition at 0.03 μM (human CDK4/cyclin D3; 0.03 µM) | CDK2 % Inhibition at 0.03 μM (CDK2/cyclin A; 0.03 µM) | HCT-116 % Inhibition at 0.1 μM (HCT-116 cell line; 0.1 µM) | HCT-116 % Inhibition at 0.25 μM (HCT-116 cell line; 0.25 µM) | CDK4 % Inhibition at 0.03 μM (human CDK4/cyclin D3) | CDK2 % Inhibition at 0.03 μM (CDK2/cyclin A) | HCT-116 % Inhibition at 0.1 μM (HCT-116 cell line) | HCT-116 % Inhibition at 0.25 μM (HCT-116 cell line) |
| --- | --- | --- | --- | --- | --- | --- | --- | --- |
| Nc1nc(Nc2ccc(C(=O)NC3CCN(Cc4ccccc4)C3)cc2)sc1C(=O)c1c(F)cccc1F (stereo not shown) [Example G353] | 46% | 35% | 0% | 55% |  |  |  |  |
| COC(=O)c1ccc(NC(=O)c2ccc(Nc3nc(N)c(C(=O)c4c(F)cccc4F)s3)cc2)c(C)c1 [Example G354] |  |  |  |  | 3% | 9% | 31% | 60% |
| Nc1nc(Nc2ccc(C(=O)NCCc3ccc(F)cc3)cc2)sc1C(=O)c1c(F)cccc1F [Example G355] |  |  |  |  | 13% | 29% | 28% | 54% |
| CCCN(C(=O)c1ccc(Nc2nc(N)c(C(=O)c3c(F)cccc3F)s2)cc1)C(C)CC (stereo not shown) [Example G356] |  |  |  |  | 5% | −16% | 27% | 50% |
| CN(C)CCCN1CCN(C(=O)c2ccc(Nc3nc(N)c(C(=O)c4c(F)cccc4F)s3)cc2)CC1 [Example G357] |  |  |  |  | 17% | −14% | 17% | 88% |
| Nc1nc(Nc2ccc(C(=O)NCCCCCCO)cc2)sc1C(=O)c1c(F)cccc1F [Example G358] |  |  |  |  | 7% | −5% | 21% | 55% |
| Nc1nc(Nc2ccc(C(=O)N[C@H](CO)CC3CCCCC3)cc2)sc1C(=O)c1c(F)cccc1F [Example G359] |  |  |  |  | −5% | −7% | 25% | 69% |
| Cc1cccc(CNC(=O)c2ccc(Nc3nc(N)c(C(=O)c4c(F)cccc4F)s3)cc2)c1 [Example G360] |  |  |  |  | 9% | 31% | 18% | 73% |
| COc1ccc(CCN(C)C(=O)c2ccc(Nc3nc(N)c(C(=O)c4c(F)cccc4F)s3)cc2)cc1OC [Example G361] |  |  |  |  | −1% | −3% | 26% | 48% |
| COCCN1CCN(C(=O)c2ccc(Nc3nc(N)c(C(=O)c4c(F)cccc4F)s3)cc2)CC1 [Example G362] |  |  |  |  | 6% | 12% | 9% | 57% |
| CN(CCCNC(=O)c1ccc(Nc2nc(N)c(C(=O)c3c(F)cccc3F)s2)cc1)c1ccccc1 [Example G363] |  |  |  |  | 16% | 27% | 24% | 63% |
| CCCN(CCC#N)C(=O)c1ccc(Nc2nc(N)c(C(=O)c3c(F)cccc3F)s2)cc1 [Example G364] |  |  |  |  | 9% | −12% | 20% | 40% |
| Nc1nc(Nc2ccc(C(=O)NCCSCCO)cc2)sc1C(=O)c1c(F)cccc1F [Example G366] |  |  |  |  | 8% | 1% | 26% | 55% |
| Nc1nc(Nc2ccc(C(=O)NCC3COc4ccccc4O3)cc2)sc1C(=O)c1c(F)cccc1F (stereo not shown) [Example G367] |  |  |  |  | 15% | 38% | 22% | 71% |
| Nc1nc(Nc2ccc(C(=O)Nc3ccc(C(F)(F)F)cc3)cc2)sc1C(=O)c1c(F)cccc1F [Example G368] |  |  |  |  | −3% | 3% | 25% | 50% |
| Nc1nc(Nc2ccc(C(=O)Nc3cccc(-c4nnco4)c3)cc2)sc1C(=O)c1c(F)cccc1F [Example G369] |  |  |  |  | 8% | 26% | 21% | 36% |
| CN(CCC(O)c1ccccc1)C(=O)c1ccc(Nc2nc(N)c(C(=O)c3c(F)cccc3F)s2)cc1 (stereo not shown) [Example G370] |  |  |  |  | 17% | 22% | 19% | 52% |
| Nc1nc(Nc2ccc(C(=O)Nc3cccc(C(F)(F)F)c3)cc2)sc1C(=O)c1c(F)cccc1F [Example G371] |  |  |  |  | 7% | 11% | 27% | 53% |
| Nc1nc(Nc2ccc(C(=O)NCCc3c(Cl)cccc3Cl)cc2)sc1C(=O)c1c(F)cccc1F [Example G372] |  |  |  |  | 6% | −21% | 19% | 51% |
| CC(=O)N[C@@H]1CCN(C(=O)c2ccc(Nc3nc(N)c(C(=O)c4c(F)cccc4F)s3)cc2)C1 [Example G373] |  |  |  |  | 10% | −7% | 31% | 48% |
| CCN(CC)CCN1CCN(C(=O)c2ccc(Nc3nc(N)c(C(=O)c4c(F)cccc4F)s3)cc2)CC1 [Example G374] |  |  |  |  | 13% | −10% | 21% | 41% |
| C[C@@H](CNC(=O)c1ccc(Nc2nc(N)c(C(=O)c3c(F)cccc3F)s2)cc1)c1ccccc1 [Example G375] |  |  |  |  | −3% | 10% | 26% | 62% |
| Nc1nc(Nc2ccc(C(=O)NC3c4ccccc4CC3O)cc2)sc1C(=O)c1c(F)cccc1F (stereo not shown) [Example G376] |  |  |  |  | −6% | 20% | 27% | 64% |
| Nc1nc(Nc2ccc(C(=O)Nc3cccc(SC(F)(F)F)c3)cc2)sc1C(=O)c1c(F)cccc1F [Example G377] |  |  |  |  | −1% | 10% | 25% | 55% |
| Nc1nc(Nc2ccc(C(=O)Nc3cccc(O)c3)cc2)sc1C(=O)c1c(F)cccc1F [Example G378] |  |  |  |  | 8% | 40% | 27% | 60% |
| Nc1nc(Nc2ccc(C(=O)N(CCO)Cc3ccccc3)cc2)sc1C(=O)c1c(F)cccc1F [Example G379] |  |  |  |  | 8% | 13% | 31% | 54% |
| CCOc1ccccc1CCNC(=O)c1ccc(Nc2nc(N)c(C(=O)c3c(F)cccc3F)s2)cc1 [Example G380] |  |  |  |  | 7% | −19% | 26% | 50% |
| Nc1nc(Nc2ccc(C(=O)NC3CCN(Cc4ccccc4)C3)cc2)sc1C(=O)c1c(F)cccc1F (stereo not shown) [Example G381] | 38% | 5% | 43% | 88% |  |  |  |  |
